Reference: patent US20240209022A1, “NOVEL PEPTIDE HAVING ANTI-INFLAMMATORY AND TISSUE REGENERATIVE ACTIONS” (KOREA RESEARCH INSTITUTE OF BIOSCIENCE AND BIOTECHNOLOGY, priority 2020, published 2024)

B1: Amuc_1409: SEQ ID NO: 15, functional fragment obtained by eliminating the leader sequence from SEQ ID NO: 14; protein derived from Akkermansia muciniphila (protein)
chain: IPESSVPAAAVSSIKGAYPNAGPIEWDSEMHGMERIYEAEFRINGFQFDVKIAPDGKIVRIKEEIAASSLPEAVRASVLKRYPGCRIKEAEKITEGELVRYKVEVADSRDDYDVLIAPDGNILHVDR
modifications: Amuc_1409_fragment
notes: protein derived from Akkermansia muciniphila

What was measured:
[1] = test system: gastritis/gastric ulcer model; assay: HCl/ethanol gastritis/gastric ulcer model; assay type: in vivo, C57BL/6J mice; details: vs PBS buffer group; for degree of gastric mucosal damage (score): oral, 1 hour after HCl/ethanol
Description: For a gastritis/gastric ulcer model, 7-week-old male C57BL/6J mice were used, and from 3 days before induction, the peptides of the present invention were dissolved in PBS buffer and then orally administered to the mice by 150 μL per animal at the same time once a day. Amuc_1409 or PEP001, PEP002, PEP003, PEP004, or PEP005 was dissolved in PBS buffer at a concentration of 6.7 μM, and novel tetrapeptides PEP006, PEP007, PEP008, PEP009, and PEP010 and novel tripeptides PEP011, PEP012, and PEP013 were each dissolved in PBS buffer at a concentration of 0.15 μg/150 μL (PEP006) or 0.2 μg/150 μL (PEP007, PEP008, PEP009, PEP010, PEP011, PEP012, and PEP013). For the induction of acute gastritis/gastric ulcer, 0.3 M HCl/60% ethanol was orally administered to the mice by 0.2 mL for each, the tissue was harvested after 1 hour, photographs of the inner surface of the stomach were taken, and the degree of damage to the stomach was compared. Measurements of gastritis/gastric ulcer indexes were converted into scores according to the degree of mucosal damage. A score of 0 was given if there was no damage, a score of 1 was given to an insignificant circle-shaped hemorrhagic corrosion site of less than 5 mm, a score of 2 was given to a hemorrhagic corrosion site with a length more than 5 mm, and a score of 3 was given to one or more hemorrhagic corrosion sites corresponding to the score of 2, a score of 4 was given to a hemorrhagic corrosion of more than 5 mm in length and less than 2 mm in width, a score of 5 was given to 2 to 3 hemorrhagic corrosions corresponding to the score of 4, a score of 6 was given to 4 to 5 hemorrhagic corrosions corresponding to the score of 4, a score of 7 was given to 6 or more hemorrhagic corrosions corresponding to the score of 4, and a score of 8 was given if there was hemorrhagic corrosion throughout the gastric mucosa. In order to confirm additional anti-inflammatory activity of the administered peptides, mRNA expression of inflammation-related genes, Tnfα, Il-1β, iNos, Cox2, and Il-10, in the gastric mucosal tissue was examined.

[2] = test system: TPA-induced dermatitis model; assay: TPA-induced dermatitis (ear) model; assay type: in vivo, C57BL/6J mice; details: vs PBS buffer group; for ear thickness / ear weight / erythema and swelling of the ear (macro photograph): 26 hours after TPA application
Description: As a dermatitis model, one day before sample application, both ears of 8-week-old male C57BL/6J mice were shaved, 2.5 μg of TPA (12-otetrade-canoyl-phorbol-13-acetate) dissolved in 25 μL acetone was applied to the right ear of the mouse to induce skin swelling and inflammation, and the left ear was coated with 25 μL of acetone, which is a TPA solvent, and used as a negative control. From 3 days before TPA application, Amuc_1409 or PEP001 to PEP013 were each dissolved in PBS buffer at a concentration of 6.7 μM, and then injected into the abdominal cavity of mice by 150 μL per animal once a day at the same time. On day 3 (0 days) after administration of the peptide, the peptide was injected intraperitoneally one time 30 minutes before TPA application, and the drug was additionally injected intraperitoneally 3 hours after TPA injection. Into the control group, the same volume of PBS buffer was intraperitoneally injected, and the experiment was terminated 26 hours after TPA application. 26 hours after TPA application, the ear thickness was measured and photographs of both ears for each test group were taken in order to examine the degree of swelling and inflammation relief in the ears. After the test animal was sacrificed, the weight per area of the ear was measured, the ears of mice were fixed in 10% neutral buffered formalin at room temperature for 24 hours or more, and then embedded in paraffin to prepare 5 μm-thick sections, and the sections were stained with hematoxylin and eosin (H&E). The degrees of swelling of the ear and inflammatory cell infiltration were examined by observing the H&E-stained tissue section under an optical microscope.

Molecule | Cox2 expression in gastric mucosal tissue ([1]; RT-qPCR) | Il-1p expression in gastric mucosal tissue ([1]; RT-qPCR) | Tnfα mRNA expression in gastric mucosal tissue ([1]; RT-qPCR) | iNos mRNA expression in gastric mucosal tissue ([1]; RT-qPCR) | degree of gastric mucosal damage (score) [1] | ear thickness [2] | ear weight [2] | erythema and swelling of the ear (macro photograph) [2] | Il-10 mRNA expression in gastric mucosal tissue ([1]; RT-qPCR) | ear tissue swelling and inflammatory cell infiltration (H&E) [2]
AVSSI (PEP002) | significantly decreased | significantly decreased | significantly decreased | significantly decreased | significantly decreased | significantly decreased | significantly decreased | significantly reduced | – | –
GAY [PEP005] | significantly decreased | significantly decreased | significantly decreased | significantly decreased | significantly decreased | significantly decreased | significantly decreased | significantly reduced | – | –
AGS [PEP012] | – | – | – | – | significantly decreased | – | – | – | – | –
VGAY (PEP010) | – | – | – | – | significantly decreased | – | – | – | – | –
KGAY (PEP003) | significantly decreased | significantly decreased | significantly decreased | significantly decreased | significantly decreased | significantly decreased | significantly decreased | significantly reduced | – | –
IGAY (PEP008) | – | – | – | – | decreased to a significant level | – | – | – | – | –
SGAY (PEP009) | – | – | – | – | decreased to a significant level | – | – | – | – | –
AQS [PEP011] | – | – | – | – | significantly decreased | – | – | – | – | –
AIS [PEP013] | – | – | – | – | significantly decreased | – | – | – | – | –
AGAY (PEP006) | – | – | – | – | significantly decreased | – | – | – | – | –
AVSSIKGAY (PEP001) | significantly decreased | significantly decreased | significantly decreased | significantly decreased | significantly decreased | significantly decreased | significantly decreased | significantly reduced | – | –
AVS (AVSSIKGAY) [PEP004] | significantly decreased | significantly decreased | significantly decreased | significantly decreased | significantly decreased | significantly decreased | significantly decreased | significantly reduced | – | –
RGAY (PEP007) | – | – | – | – | decreased to a significant level | – | – | – | – | –
B1 | – | – | significantly decreased | significantly decreased | significantly decreased | tended to decrease | significantly decreased | reduced overall | increased | significantly reduced
